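Briefly, cells in 96-well plates were exposed to five compound concentrations for 48 h, and endpoints were estimated by linear interpolation. GI50 is the concentration that inhibits growth by half. TGI: concentration producing complete growth inhibition.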
Key:
Assay in all cases: NCI-60 cell line screen, 48 h
CAKI-1 renal = system: CAKI-1 renal
EKVX NSCLC = system: EKVX NSCLC
SR leukemia = system: SR leukemia
HT29 colon = system: HT29 colon
MCF7 breast = system: MCF7 breast
MDA-MB-435 = system: MDA-MB-435
DU-145 prostate = system: DU-145 prostate
SF-295 CNS = system: SF-295 CNS
CCRF-CEM leukemia = system: CCRF-CEM leukemia
SF-539 CNS = system: SF-539 CNS
NCI/ADR-RES ovarian = system: NCI/ADR-RES ovarian
LOX IMVI melanoma = system: LOX IMVI melanoma
HS 578T breast = system: HS 578T breast
BT-549 breast = system: BT-549 breast
T-47D breast = system: T-47D breast
KM20L2 colon = system: KM20L2 colon
DMS 273 small cell lung = system: DMS 273 small cell lung

Row | SMILES | TGI (CAKI-1 renal) [µM] | TGI (EKVX NSCLC) [µM] | TGI (SR leukemia) [µM] | TGI (HT29 colon) [µM] | TGI (MCF7 breast) [µM] | TGI (MDA-MB-435) [µM] | TGI (DU-145 prostate) [µM] | TGI (SF-295 CNS) [µM] | TGI (CCRF-CEM leukemia) [µM] | TGI (SF-539 CNS) [µM] | TGI (NCI/ADR-RES ovarian) [µM] | TGI (LOX IMVI melanoma) [µM] | TGI (HS 578T breast) [µM] | TGI (BT-549 breast) [µM] | TGI (T-47D breast) [µM] | TGI (KM20L2 colon) [µM] | TGI (DMS 273 small cell lung) [µM] | GI50 (SR leukemia) [µM] | GI50 (HT29 colon) [µM] | GI50 (CCRF-CEM leukemia) [µM]
1 | OCCNCCN1CCN(CCCN2c3ccccc3Sc3ccc(C(F)(F)F)cc32)CC1 | > 100 | 52.3 | > 100 | 28.3 | 39.8 | 33.7 | > 100 | 34.9 | > 100 | 34.5 | 54.6 | 28.5 | 70.1 | > 100 | 50.4 | – | – | – | – | –
2 | Cc1ccc(C2OC(COCc3ccc(Cl)cc3)C(OCc3ccc(Cl)cc3)C2O)cc1 (stereo not drawn) | 38.3 | 40 | > 100 | 26.2 | – | – | – | 32 | – | 36.2 | – | – | – | – | – | 56.1 | 18.9 | – | – | –
3 | CCCc1c(-c2ccccc2)[nH]c2ccccc2c1=O | – | > 100 | > 100 | 50.3 | > 100 | > 100 | > 100 | > 100 | > 100 | > 100 | – | 43.5 | > 100 | > 100 | 99.8 | – | – | – | – | –
4 | CO/N=C(/C)c1ccc(NC(=O)CSc2nnc(-c3ccncc3)n2-c2ccccc2)cc1 | – | – | > 100 | > 100 | – | – | – | – | > 100 | – | – | – | – | – | – | – | – | > 100 | > 100 | > 100
5 | NCCSS(=O)(=O)CCN | > 100 | > 100 | > 100 | > 100 | > 100 | > 100 | > 100 | > 100 | > 100 | > 100 | > 100 | > 100 | > 100 | > 100 | > 100 | – | – | – | – | –
6 | CN(C)CCCN1c2ccccc2Sc2ccc3ccccc3c21 | 18.1 | 23.9 | 3.84 | 12.5 | 14.9 | 10.4 | 25.4 | 26.3 | 8.2 | 30.9 | 22.5 | 19.8 | 25.6 | 26.3 | 5.65 | – | – | – | – | –
7 | C=CC1(NC(=O)c2ccccc2)CCC(C(C)(C)C)CC1 (stereo not drawn) | – | > 83.2 | – | 55 | > 83.5 | – | – | 74 | 72.1 | > 100 | 76.1 | 39.3 | – | – | – | 39.7 | > 73.2 | – | – | –
8 | O=C1C(Cl)=C(Nc2ccc(S(=O)(=O)O)cc2)C(=O)c2ccccc21 | > 100 | 52.5 | > 100 | > 100 | 49.1 | 39.6 | 36.5 | 82.5 | > 100 | 57.9 | > 100 | 80 | 52.8 | > 100 | – | – | – | – | – | –
9 | O=C(O)c1cc2c(ncc3c(=O)n(-c4ccccc4)[nH]c32)s1 | > 100 | > 100 | > 100 | > 100 | – | – | – | – | > 100 | > 100 | – | > 100 | – | – | – | > 100 | > 100 | – | – | –
10 | Cn1c(=O)c2[nH]c(CCNC(=O)c3ccccc3)nc2n(C)c1=O | > 100 | > 100 | > 100 | > 100 | – | > 100 | > 100 | > 100 | > 100 | – | > 100 | > 100 | > 100 | > 100 | > 100 | – | – | – | – | –
11 | O=C1C=CC2(C=C1)O[C@H](Cc1ccccc1)[C@@H](Cc1ccccc1)O2 | 2.27 | 1.76 | 3.26 | 2.81 | 1.51 | 3.56 | 5.89 | 5.15 | 0.585 | 1.02 | 1.11 | 0.824 | 2.42 | 0.563 | > 100 | – | – | – | – | –
12 | CC(=O)Oc1cc2c(cc1OC(C)=O)OCC(c1ccccc1)C2 (stereo not drawn) | 39.2 | 57.8 | – | 98.3 | 66.8 | – | – | 49.8 | 15.1 | 48.7 | 134 | 46 | – | – | – | 61.1 | 102 | – | – | –
13 | O=C1OC2(CC1C1(O)C3CC4CC(C3)CC1C4)C1CC3CC(C1)CC2C3 (stereo not drawn) | – | – | – | > 100 | – | – | – | 73.1 | > 100 | > 100 | – | > 100 | – | – | – | – | > 100 | – | – | –
14 | N#C[C@H](OC1OC(COC2OC(CO)C(O)C(O)C2O)C(O)C(O)C1O)c1ccccc1 (stereo partly drawn) | > 250 | > 250 | – | > 250 | > 250 | – | – | > 250 | > 250 | > 250 | > 250 | > 250 | – | – | – | > 250 | > 250 | – | – | –
15 | COc1nc(=O)n(COC(CO)CN2C(=O)c3ccccc3C2=O)cc1Cc1cccc(OCc2ccccc2)c1 (stereo not drawn) | – | > 100 | – | > 100 | – | – | – | 48.9 | 60.2 | 34.2 | – | 41.5 | – | – | – | 55.7 | 45.4 | – | – | –
16 | O=C(Nc1nc2ccc([N+](=O)[O-])cc2s1)C(=O)C(C(=O)c1ccccc1F)C1OC(=O)c2ccccc21 (stereo not drawn) | 98.5 | 73.4 | 54.2 | > 100 | – | – | – | > 100 | 48.7 | 48.3 | – | > 100 | – | – | – | > 100 | > 100 | – | – | –
17 | O=C(CCl)NNC1=Nc2ccc(Cl)cc2SC1 | – | 4.08 | – | 3.4 | 7.62 | – | – | 28.4 | 3.08 | 3.77 | 3.79 | 2.48 | – | – | – | 9.18 | 8.29 | – | – | –
18 | Nc1ccn(C2C=C(CO)C(O)C2O)c(=O)c1 (stereo not drawn) | > 625 | – | – | > 625 | > 625 | – | – | > 625 | – | > 625 | > 625 | > 625 | – | – | – | > 625 | > 625 | – | – | –

From PubChem BioAssay (NCI)
